Some test systems named below: NCI-H226 lung; OVCAR-3 ovarian; MDA-MB-435; KM12 colon; A549 NSCLC; M14 melanoma; CAKI-1 renal; SN12C renal; K-562 leukemia; U251 CNS; UO-31 renal; SF-539 CNS; OVCAR-5 ovarian; SNB-75 CNS; HT29 colon; SK-MEL-28 melanoma; OVCAR-8 ovarian; HCC-2998 colon.
Holding throughout (assay): NCI-60 cell line screen, 48 h

Experimental findings from PubChem BioAssay (NCI) are described below.

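48-hour exposure; five concentrations; linearly interpolated endpoints. TGI denotes the concentration required for complete inhibition of growth.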

With `CC(C)=CCC[C@@H](C)C1=C(O)C(Nc2ccccc2Br)=C(C)C(=O)C1=O`, the TGI is 34.2 µM in the assay on NCI-H226 lung; 35.6 µM in the assay with OVCAR-3 ovarian; more than 65.7 µM with MDA-MB-435; 32.1 µM with KM12 colon; 44.6 µM in the assay on A549 NSCLC; 29.8 µM in the assay with M14 melanoma. The TGI is 52.1 µM in the assay with CAKI-1 renal; 28.2 µM in the assay on SN12C renal; more than 69.9 µM in the assay with K-562 leukemia; 99.5 µM in the assay with U251 CNS; 35.7 µM in the assay with UO-31 renal; 25.1 µM in the assay with SF-539 CNS. The TGI with OVCAR-5 ovarian was 41.9 µM; with SNB-75 CNS, 66.2 µM; in the assay on HT29 colon it was 37 µM; with SK-MEL-28 melanoma, more than 80.6 µM; with OVCAR-8 ovarian it was 73 µM; in the assay with HCC-2998 colon it was more than 69.9 µM.

Turning to `COC(OC)C1OC(CO)C(n2cc(C)c(=O)[nH]c2=O)C1O` (stereo not drawn), the TGI in the assay on NCI-H226 lung, in the assay on OVCAR-3 ovarian, in the assay on MDA-MB-435, in the assay on KM12 colon, in the assay on A549 NSCLC and in the assay with M14 melanoma was more than 100 µM in each case. The TGI in the assay on CAKI-1 renal, with SN12C renal, in the assay with K-562 leukemia, in the assay on U251 CNS, in the assay with UO-31 renal and in the assay with SF-539 CNS was more than 100 µM throughout. Further, the TGI with OVCAR-5 ovarian, in the assay on SNB-75 CNS, with HT29 colon, in the assay on SK-MEL-28 melanoma, in the assay with OVCAR-8 ovarian and in the assay with HCC-2998 colon was more than 100 µM in each case.

`C=CC(Cl)(CBr)CCC(Br)=C(C)C` (stereo not drawn): the TGI in the assay with NCI-H226 lung is more than 100 µM; with OVCAR-3 ovarian it was 55.3 µM; with MDA-MB-435, 46.7 µM; in the assay on KM12 colon, 40.7 µM; in the assay with A549 NSCLC, more than 100 µM; with M14 melanoma, more than 100 µM. The TGI in the assay with CAKI-1 renal is 21.2 µM; in the assay on SN12C renal, 33 µM; in the assay on K-562 leukemia, more than 100 µM; in the assay with U251 CNS it was 30.5 µM; in the assay on UO-31 renal, 37.4 µM; in the assay on SF-539 CNS, 44 µM. In addition, the TGI stood at 61.2 µM in the assay with OVCAR-5 ovarian; 91.4 µM with SNB-75 CNS; 39.8 µM in the assay on HT29 colon; 40.7 µM with SK-MEL-28 melanoma; 64.6 µM in the assay with OVCAR-8 ovarian; 44.5 µM in the assay on HCC-2998 colon.

With `COC1=C2CC(C)CC(OC)[C@@H](OC(=O)CCN)[C@H](C)/C=C(\C)C(OC(N)=O)C(OC)/C=C\C=C(/C)C(=O)NC(=CC1=O)C2=O` (stereo partly drawn), the TGI with NCI-H226 lung came to 40.6 µM; in the assay with OVCAR-3 ovarian, 8.19 µM; in the assay with MDA-MB-435, 6.96 µM; in the assay on KM12 colon it was 8.36 µM; in the assay on A549 NSCLC it was 29.2 µM; in the assay on M14 melanoma, 19.5 µM. The TGI worked out at 17.7 µM in the assay with CAKI-1 renal; 14.2 µM in the assay on SN12C renal; 6.19 µM with U251 CNS; 16.3 µM in the assay with UO-31 renal; 14.9 µM in the assay with SF-539 CNS; 21.1 µM in the assay with OVCAR-5 ovarian. For the same compound, the TGI in the assay with SNB-75 CNS stood at 35.1 µM; with HT29 colon it was 13.1 µM; with SK-MEL-28 melanoma, 5.22 µM; in the assay with OVCAR-8 ovarian it was 15.5 µM; in the assay on HCC-2998 colon, 5.69 µM.

Turning to `CSC1=C(C(=O)Nc2ccc(Cl)cc2)C(N)=NC1=O`, the TGI with NCI-H226 lung, in the assay with OVCAR-3 ovarian, with MDA-MB-435, in the assay on KM12 colon, in the assay on A549 NSCLC and in the assay on M14 melanoma was more than 100 µM in each case. Moreover, the TGI in the assay on CAKI-1 renal, in the assay on SN12C renal, in the assay with K-562 leukemia, in the assay on U251 CNS, in the assay with UO-31 renal and with SF-539 CNS was more than 100 µM throughout. Also, the TGI with OVCAR-5 ovarian, in the assay with SNB-75 CNS, in the assay on HT29 colon, in the assay on SK-MEL-28 melanoma, in the assay on OVCAR-8 ovarian and with HCC-2998 colon was more than 100 µM throughout.

As for `C=CCCCC1CCCNC1=O` (stereo not drawn), the TGI in the assay with NCI-H226 lung, in the assay with OVCAR-3 ovarian, in the assay on MDA-MB-435, with KM12 colon, in the assay with A549 NSCLC and in the assay on M14 melanoma was more than 100 µM in each case. Besides, the TGI in the assay with CAKI-1 renal, with SN12C renal, in the assay with K-562 leukemia, with U251 CNS, in the assay on UO-31 renal and in the assay on SF-539 CNS was more than 100 µM each time. Also, the TGI in the assay on OVCAR-5 ovarian, in the assay with SNB-75 CNS, in the assay with HT29 colon, in the assay on SK-MEL-28 melanoma, with OVCAR-8 ovarian and with HCC-2998 colon was more than 100 µM in each case.

For `CCCCON1C[C@@H](O)C(O)[C@@H](O)C1` (stereo partly drawn), the TGI in the assay on NCI-H226 lung, in the assay with OVCAR-3 ovarian, in the assay on MDA-MB-435, in the assay with KM12 colon, in the assay with A549 NSCLC and with M14 melanoma was more than 100 µM in each case. The TGI in the assay with CAKI-1 renal, with SN12C renal, in the assay on K-562 leukemia, with U251 CNS, with UO-31 renal and in the assay on SF-539 CNS was more than 100 µM each time. Moreover, the TGI with OVCAR-5 ovarian, with SNB-75 CNS, with HT29 colon, with SK-MEL-28 melanoma, with OVCAR-8 ovarian and in the assay on HCC-2998 colon was more than 100 µM throughout.

As for `CCOc1ccc(N=NC2C(=O)N(C(=O)CC(=O)Nc3ccccc3OC)N=C2C)cc1` (stereo not drawn), the TGI in the assay with NCI-H226 lung was more than 100 µM; in the assay on OVCAR-3 ovarian, more than 100 µM; in the assay on MDA-MB-435 it was 4.12 µM; in the assay on KM12 colon, more than 100 µM; in the assay with A549 NSCLC, more than 100 µM; in the assay with M14 melanoma, more than 100 µM. The TGI in the assay on CAKI-1 renal was more than 64.7 µM; in the assay on SN12C renal, more than 100 µM; in the assay on K-562 leukemia it was more than 100 µM; in the assay with U251 CNS, more than 63.4 µM; with UO-31 renal it was more than 100 µM; with SF-539 CNS it was more than 57.9 µM. For the same compound, the TGI in the assay on OVCAR-5 ovarian was more than 100 µM; with SNB-75 CNS it was 23.6 µM; with HT29 colon, more than 100 µM; in the assay on SK-MEL-28 melanoma, more than 100 µM; in the assay on OVCAR-8 ovarian it was more than 100 µM; with HCC-2998 colon it was more than 60.3 µM.
